Data: patent US20100273694A1, “SURFACTANT COMPOSITION METHOD FOR PRODUCTION THEREOF AND COSMETIC COMPRISING SAID COMPOSITION” (EIFFAGE TRAVAUX PUBLICS, priority 2004, published 2010)

Assay: Measurement of surface tension and critical micellar concentrations (rising drop tensiometer)
Type: physicochemical
Settings: critical micellar concentration, rising drop method
Procedure: The tensiometric measurements were carried out with a drop tensiometer operating by the method of the rising drop ([…] tensiometer, I.T. CONCEPT).

Molecule | CMC
9-octadecenyl betaine mesylate [Esters C18:1] | 1.10^−4 M
CCCCCCCCCCCCOS(=O)(=O)[O-].[Na+] [SDS (C12), sodium dodecyl sulphate, reference compound] | 0.008 M
betainylaminooctadecane mesylate [Amides C18:0] | 0.00014 M
betainylaminooctadecenyl mesylate [Amides C18:1] | 0.00012 M
octadecyl betaine mesylate [Esters C18:0] | 8.10^−4 M

Same assay, conditions: surface tension at the CMC, rising drop method

Molecule | γcmc
9-octadecenyl betaine mesylate [Esters C18:1] | 36.6 mN/m
CCCCCCCCCCCCOS(=O)(=O)[O-].[Na+] [SDS (C12), sodium dodecyl sulphate, reference compound] | 30.0 mN/m
betainylaminooctadecane mesylate [Amides C18:0] | 36.0 mN/m
betainylaminooctadecenyl mesylate [Amides C18:1] | 36.2 mN/m
octadecyl betaine mesylate [Esters C18:0] | 37.2 mN/m
